# PubChem BioAssay AID248 (DTP/NCI, 2004)
# Values joined by “and” are separate entries in the source; they are usually repeats but may differ in a detail not shown here. Equal entries are not always repeated. Inconclusive results and toxic doses are left out.
# Tested on: L1210 leukemia ip in BDF1 mice, survival T/C
# Assay: NCI In Vivo Anticancer Drug Screen. Data for tumor model L1210 Leukemia (intraperitoneal) in B6D2F1 (BDF1) mice
# Conditions: endpoint: mean survival time, higher = longer survival
# Method in brief: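 In this screen, tumor-bearing mice given compound are compared to those given vehicle, and their survival values are reported as a treated-to-control quotient.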
# [1] = dose: 100.0 mg/kg/injection, schedule: Q01DX009 (ip), vehicle: saline with Tween-80
# [2] = dose: 200.0 mg/kg/injection, schedule: Q01DX009 (ip), vehicle: saline with Tween-80
# [3] = dose: 100.0 mg/kg/injection, schedule: Q01DX001 (ip), vehicle: saline
# [4] = dose: 200.0 mg/kg/injection, schedule: Q01DX001 (ip), vehicle: saline
smiles,measurement,setting,value
COc1cc2c3c(c4ccc(OC)c(OC)c4c2cc1OC)CN1CCC[C@@H]1C3,T/C,"dose: 1.25 mg/kg/injection, schedule: Q01DX Z (im), vehicle: water",103 % of control
same,T/C,"dose: 1.25 mg/kg/injection, schedule: Q01DX Z (ip), vehicle: water",103 % of control
same,T/C,"dose: 1.25 mg/kg/injection, schedule: Q01DX Z (sc), vehicle: water",106 % of control
same,T/C,"dose: 1.25 mg/kg/injection, schedule: Q02DX Z (ip), vehicle: water",105 % of control
same,T/C,"dose: 2.2 mg/kg/injection, schedule: Q01DX Z (ip), vehicle: carboxymethylcellulose (CMC)",111 % of control
same,T/C,"dose: 2.2 mg/kg/injection, schedule: Q01DX Z (ip), vehicle: other",107 % of control
same,T/C,"dose: 2.5 mg/kg/injection, schedule: Q01DX Z (im), vehicle: water",111 % of control
same,T/C,"dose: 2.5 mg/kg/injection, schedule: Q01DX Z (ip), vehicle: water",94 % of control and 106 % of control
same,T/C,"dose: 2.5 mg/kg/injection, schedule: Q01DX Z (sc), vehicle: water",106 % of control
same,T/C,"dose: 2.5 mg/kg/injection, schedule: Q02DX Z (ip), vehicle: water",109 % of control
same,T/C,"dose: 2.5 mg/kg/injection, schedule: Q03DX Z (ip), vehicle: water",105 % of control
same,T/C,"dose: 4.0 mg/kg/injection, schedule: Q01DX Z (ip), vehicle: water",94 % of control
same,T/C,"dose: 4.4 mg/kg/injection, schedule: Q01DX Z (ip), vehicle: carboxymethylcellulose (CMC)",114 % of control and 117 % of control
same,T/C,"dose: 5.0 mg/kg/injection, schedule: Q01DX005 (iv), vehicle: water",106 % of control
same,T/C,"dose: 5.0 mg/kg/injection, schedule: Q01DX Z (im), vehicle: water",118 % of control
same,T/C,"dose: 5.0 mg/kg/injection, schedule: Q01DX Z (ip), vehicle: water",103 % of control and 117 % of control and 124 % of control
same,T/C,"dose: 5.0 mg/kg/injection, schedule: Q01DX Z (oral), vehicle: water",112 % of control and 115 % of control
same,T/C,"dose: 5.0 mg/kg/injection, schedule: Q01DX Z (sc), vehicle: water",122 % of control
same,T/C,"dose: 5.0 mg/kg/injection, schedule: Q02DX Z (ip), vehicle: water",95 % of control and 103 % of control
same,T/C,"dose: 5.0 mg/kg/injection, schedule: Q03DX Z (ip), vehicle: water",103 % of control and 106 % of control
same,T/C,"dose: 6.0 mg/kg/injection, schedule: Q01DX Z (ip), vehicle: water",109 % of control
same,T/C,"dose: 6.6 mg/kg/injection, schedule: Q01DX Z (ip), vehicle: carboxymethylcellulose (CMC)",117 % of control and 118 % of control
same,T/C,"dose: 6.6 mg/kg/injection, schedule: Q01DX Z (ip), vehicle: other",117 % of control
same,T/C,"dose: 7.5 mg/kg/injection, schedule: Q01DX Z (ip), vehicle: water",115 % of control
same,T/C,"dose: 8.0 mg/kg/injection, schedule: Q01DX Z (ip), vehicle: water",97 % of control and 101 % of control
same,T/C,"dose: 9.0 mg/kg/injection, schedule: Q01DX Z (ip), vehicle: water",120 % of control
same,T/C,"dose: 10.0 mg/kg/injection, schedule: Q01DX005 (iv), vehicle: water",114 % of control
same,T/C,"dose: 10.0 mg/kg/injection, schedule: Q01DX Z (im), vehicle: water",97 % of control
same,T/C,"dose: 10.0 mg/kg/injection, schedule: Q01DX Z (ip), vehicle: water",117 % of control
same,T/C,"dose: 10.0 mg/kg/injection, schedule: Q01DX Z (sc), vehicle: water",100 % of control
same,T/C,"dose: 10.0 mg/kg/injection, schedule: Q02DX Z (ip), vehicle: water",111 % of control and 112 % of control
same,T/C,"dose: 10.0 mg/kg/injection, schedule: Q02DX Z (oral), vehicle: water",121 % of control
same,T/C,"dose: 12.0 mg/kg/injection, schedule: Q01DX Z (ip), vehicle: water",114 % of control and 122 % of control
same,T/C,"dose: 12.5 mg/kg/injection, schedule: Q01DX Z (ip), vehicle: water",120 % of control
same,T/C,"dose: 15.0 mg/kg/injection, schedule: Q01DX Z (ip), vehicle: other",151 % of control
same,T/C,"dose: 15.0 mg/kg/injection, schedule: Q01DX Z (ip), vehicle: water",95 % of control
same,T/C,"dose: 20.0 mg/kg/injection, schedule: Q01DX001 (ip), vehicle: water",106 % of control
same,T/C,"dose: 20.0 mg/kg/injection, schedule: Q01DX Z (ip), vehicle: water",98 % of control and 104 % of control
same,T/C,"dose: 20.0 mg/kg/injection, schedule: Q07DX003 (ip), vehicle: water",123 % of control
same,T/C,"dose: 22.0 mg/kg/injection, schedule: Q01DX Z (ip), vehicle: carboxymethylcellulose (CMC)",92 % of control
same,T/C,"dose: 30.0 mg/kg/injection, schedule: Q01DX001 (ip), vehicle: water",114 % of control
same,T/C,"dose: 30.0 mg/kg/injection, schedule: Q02DX Z (ip), vehicle: water",120 % of control
same,T/C,"dose: 30.0 mg/kg/injection, schedule: Q02DX Z (oral), vehicle: water",90 % of control
same,T/C,"dose: 30.0 mg/kg/injection, schedule: Q03DX Z (ip), vehicle: water",124 % of control
same,T/C,"dose: 30.0 mg/kg/injection, schedule: Q07DX003 (ip), vehicle: water",103 % of control
same,T/C,"dose: 33.0 mg/kg/injection, schedule: Q01DX Z (ip), vehicle: carboxymethylcellulose (CMC)",114 % of control
same,T/C,"dose: 40.0 mg/kg/injection, schedule: Q01DX001 (ip), vehicle: water",114 % of control
same,T/C,"dose: 40.0 mg/kg/injection, schedule: Q01DX Z (ip), vehicle: water",98 % of control and 102 % of control
same,T/C,"dose: 40.0 mg/kg/injection, schedule: Q01DX Z (oral), vehicle: water",92 % of control
same,T/C,"dose: 40.0 mg/kg/injection, schedule: Q03DX Z (ip), vehicle: water",88 % of control
same,T/C,"dose: 80.0 mg/kg/injection, schedule: Q01DX001 (ip), vehicle: saline",117 % of control
same,T/C,"dose: 80.0 mg/kg/injection, schedule: Q07DX Z (ip), vehicle: saline",114 % of control
same,T/C,"dose: 160.0 mg/kg/injection, schedule: Q07DX Z (ip), vehicle: saline",105 % of control
COc1cc(Cn2cccc2/C=N/NC(N)=S)c([N+](=O)[O-])cc1OC,T/C,"dose: 25.0 mg/kg/injection, schedule: Q04DX002 (ip), vehicle: Klucel (hydroxypropylcellulose) (HPC)",100 % of control
same,T/C,"dose: 50.0 mg/kg/injection, schedule: Q04DX002 (ip), vehicle: Klucel (hydroxypropylcellulose) (HPC)",104 % of control
same,T/C,"dose: 100.0 mg/kg/injection, schedule: Q04DX002 (ip), vehicle: Klucel (hydroxypropylcellulose) (HPC)",93 % of control
C(#CP(c1ccccc1)c1ccccc1)P(c1ccccc1)c1ccccc1,T/C,"dose: 50.0 mg/kg/injection, schedule: Q04DX003 (ip), vehicle: Klucel (hydroxypropylcellulose) (HPC)",98 % of control
same,T/C,"dose: 100.0 mg/kg/injection, schedule: Q04DX003 (ip), vehicle: Klucel (hydroxypropylcellulose) (HPC)",101 % of control
same,T/C,"dose: 200.0 mg/kg/injection, schedule: Q04DX003 (ip), vehicle: Klucel (hydroxypropylcellulose) (HPC)",102 % of control
Cc1ccc(C)n1-c1ccc(S(=O)(=O)c2ccc(NC(=O)CCC(=O)O)cc2)cc1,T/C,[1],93 % of control
same,T/C,[2],88 % of control
same,T/C,"dose: 400.0 mg/kg/injection, schedule: Q01DX009 (ip), vehicle: saline with Tween-80",96 % of control
c1ccc2c(c1)CCc1c-2[nH]c2ccccc12,T/C,[1],96 % of control
same,T/C,[2],94 % of control
Nn1c(=S)[nH][nH]c1=S,T/C,"dose: 100.0 mg/kg/injection, schedule: Q04DX003 (ip), vehicle: saline",97 % of control
same,T/C,"dose: 200.0 mg/kg/injection, schedule: Q04DX003 (ip), vehicle: saline",103 % of control
same,T/C,"dose: 400.0 mg/kg/injection, schedule: Q04DX003 (ip), vehicle: saline",98 % of control
O=[N+]([O-])c1cc(Cl)c(Cl)c([N+](=O)[O-])c1O,T/C,"dose: 25.0 mg/kg/injection, schedule: Q01DX009 (ip), vehicle: acetone",92 % of control
same,T/C,"dose: 50.0 mg/kg/injection, schedule: Q01DX009 (ip), vehicle: acetone",97 % of control
same,T/C,"dose: 50.0 mg/kg/injection, schedule: Q04DX003 (ip), vehicle: acetone",95 % of control
same,T/C,[3],95 % of control
same,T/C,"dose: 100.0 mg/kg/injection, schedule: Q01DX009 (ip), vehicle: acetone",95 % of control
same,T/C,"dose: 100.0 mg/kg/injection, schedule: Q04DX003 (ip), vehicle: acetone",89 % of control
same,T/C,"dose: 150.0 mg/kg/injection, schedule: Q01DX009 (ip), vehicle: acetone",100 % of control
same,T/C,[4],93 % of control
COc1ccc2c3c1O[C@H]1C(O)C=C[C@H]4[C@@H](C2)N(C)CC[C@]314 (stereo partly drawn),T/C,[3],95 % of control
same,T/C,[4],95 % of control
CCc1cccc2c1C(=O)OC2=O,T/C,"dose: 100.0 mg/kg/injection, schedule: Q01DX009 (ip), vehicle: saline",94 % of control
same,T/C,"dose: 200.0 mg/kg/injection, schedule: Q01DX009 (ip), vehicle: saline",91 % of control
Nc1nc2ncc(CNc3ncc(C(=O)NC(CCC(=O)O)C(=O)O)s3)nc2c(=O)[nH]1 (stereo not drawn),T/C,"dose: 50.0 mg/kg/injection, schedule: Q01DX001 (ip), vehicle: other",105 % of control
same,T/C,"dose: 100.0 mg/kg/injection, schedule: Q01DX001 (ip), vehicle: other",106 % of control
O/N=C/Cc1ccccc1,T/C,"dose: 100.0 mg/kg/injection, schedule: Q04DX002 (ip), vehicle: DMSO",103 % of control
same,T/C,"dose: 200.0 mg/kg/injection, schedule: Q04DX002 (ip), vehicle: DMSO",123 % of control
